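Exposure lasted 48 hours, with cells grown in 96-well plates and compounds tested at five concentrations. Abbreviation: GI50, concentration required for 50% inhibition of growth.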 Active and inactive are the calls of the source. No stated cut-off is given here; in the data, active = GI50 up to about 1.1 µM and inactive = higher.
How the values were obtained:
Test in all cases: NCI anticancer screen, dose series, 48 h
OVCAR-4 = tested on: OVCAR-4
LXFL 529 = tested on: LXFL 529
UO-31 = tested on: UO-31
CAKI-1 = tested on: CAKI-1
NCI-H460 = tested on: NCI-H460
SK-MEL-2 = tested on: SK-MEL-2
SF-295 = tested on: SF-295
SNB-19 = tested on: SNB-19
SF-268 = tested on: SF-268
HCT-15 = tested on: HCT-15
HOP-92 = tested on: HOP-92
786-0 = tested on: 786-0
ACHN = tested on: ACHN
DMS-273 = tested on: DMS-273
OVCAR-8 = tested on: OVCAR-8
LOX IMVI = tested on: LOX IMVI
M14 = tested on: M14
U-251 = tested on: U-251
HCT-116 = tested on: HCT-116
SK-MEL-5 = tested on: SK-MEL-5
DLD-1 = tested on: DLD-1
A549 = tested on: A549
SN12C = tested on: SN12C
NCI-H522 = tested on: NCI-H522
HT-29 = tested on: HT-29
HCC 2998 = tested on: HCC 2998
OVCAR-3 = tested on: OVCAR-3
SF-539 = tested on: SF-539
NCI-H23 = tested on: NCI-H23
UACC-62 = tested on: UACC-62
SK-MEL-28 = tested on: SK-MEL-28
KM-20L2 = tested on: KM-20L2
IGROV-1 = tested on: IGROV-1
UACC-257 = tested on: UACC-257
HOP-62 = tested on: HOP-62
M19-MEL = tested on: M19-MEL
TK-10 = tested on: TK-10
SW-620 = tested on: SW-620
KM12 = tested on: KM12
EKVX = tested on: EKVX
OVCAR-5 = tested on: OVCAR-5
SNB-75 = tested on: SNB-75
RXF 393 = tested on: RXF 393
Malme-3M = tested on: Malme-3M
SNB-78 = tested on: SNB-78
K562 = tested on: K562
COLO 205 = tested on: COLO 205
DMS-114 = tested on: DMS-114
A498 = tested on: A498
RPMI-8226 = tested on: RPMI-8226
SK-OV-3 = tested on: SK-OV-3

Row | Structure (SMILES) | GI50 (OVCAR-4) | GI50 (LXFL 529) | GI50 (UO-31) | GI50 (NCI-H460) | GI50 (SK-MEL-2) | GI50 (SF-295) | GI50 (SNB-19) | GI50 (SF-268) | GI50 (HOP-92) | GI50 (ACHN) | GI50 (M14) | GI50 (U-251) | GI50 (HCT-116) | GI50 (HT-29) | GI50 (OVCAR-3) | GI50 (SF-539) | GI50 (NCI-H23) | GI50 (UACC-62) | GI50 (SK-MEL-28) | GI50 (KM-20L2) | also measured
1 | CCN(CC)C(=O)c1ccc(C)c(/N=N/N(C)C)c1 | > 100 µM (inactive) | > 100 µM (inactive) | > 100 µM (inactive) | > 100 µM (inactive) | > 100 µM (inactive) | > 100 µM (inactive) | > 100 µM (inactive) | > 100 µM (inactive) | > 100 µM (inactive) | > 100 µM (inactive) | > 100 µM (inactive) | > 100 µM (inactive) | > 100 µM (inactive) | > 100 µM (inactive) | > 100 µM (inactive) | > 100 µM (inactive) | > 100 µM (inactive) | > 100 µM (inactive) | > 100 µM (inactive) | > 10 µM (inactive) | GI50 (CAKI-1): > 100 µM (inactive); GI50 (HCT-15): > 100 µM; GI50 (786-0): > 100 µM (inactive); GI50 (DMS-273): > 100 µM (inactive); GI50 (OVCAR-8): > 100 µM (inactive); GI50 (LOX IMVI): > 100 µM (inactive); GI50 (SK-MEL-5): > 100 µM (inactive); GI50 (DLD-1): > 100 µM (inactive); GI50 (A549): > 100 µM (inactive); GI50 (SN12C): > 100 µM (inactive); GI50 (NCI-H522): 44 µM (inactive); GI50 (HCC 2998): > 100 µM (inactive); GI50 (IGROV-1): > 100 µM (inactive); GI50 (UACC-257): > 100 µM (inactive); GI50 (HOP-62): > 100 µM (inactive); GI50 (M19-MEL): > 100 µM (inactive); GI50 (TK-10): > 100 µM (inactive); GI50 (SW-620): > 100 µM (inactive); GI50 (KM12): > 100 µM (inactive); GI50 (EKVX): > 100 µM (inactive)
2 | CCOP(=O)(OCC)/C(C#N)=C/c1cc(O)ccc1O | > 100 µM (inactive) | > 100 µM (inactive) | > 100 µM (inactive) | > 100 µM (inactive) | > 100 µM (inactive) | > 100 µM (inactive) | > 100 µM (inactive) | > 100 µM (inactive) | > 100 µM (inactive) | > 100 µM (inactive) | > 100 µM (inactive) | > 100 µM (inactive) | > 100 µM (inactive) | > 100 µM (inactive) | > 100 µM (inactive) | > 100 µM (inactive) | > 100 µM (inactive) | > 100 µM (inactive) | > 100 µM (inactive) | > 100 µM (inactive) | GI50 (OVCAR-5): > 100 µM (inactive); GI50 (SNB-75): 79.3 µM (inactive); GI50 (RXF 393): > 100 µM (inactive); GI50 (Malme-3M): > 100 µM (inactive); GI50 (SNB-78): > 100 µM (inactive); GI50 (K562): > 100 µM (inactive); GI50 (COLO 205): > 100 µM (inactive); GI50 (IGROV-1): > 100 µM (inactive); GI50 (DMS-114): > 100 µM (inactive); GI50 (A498): > 100 µM (inactive); GI50 (UACC-257): > 100 µM (inactive); GI50 (RPMI-8226): > 100 µM (inactive); GI50 (HOP-62): > 100 µM (inactive); GI50 (M19-MEL): > 100 µM (inactive); GI50 (KM12): > 100 µM (inactive); GI50 (SK-OV-3): > 100 µM (inactive)

Source: ChEMBL document CHEMBL1201862, “PubChem BioAssay data set” (2004)
